Data published in patent US9211284B2, “Diagnosis and treatment of P.R.I.C.E. syndrome” (priority 2013, dated 2015).
Entries after “also recorded” stand apart in the source; their conditions may differ.

Columns and labels:
[1] = tested on: patient having P.R.I.C.E. Syndrome; test: Example 1: case report of a patient with P.R.I.C.E. Syndrome, earlier medications then KAPVAY (plus inositol)
Excerpt: The patient was tried on many psychostimulant medications, which are the gold standard for treatment of ADHD. Medications in this class include: Adderall/XR, Focalin/XR, Dexedrine, Vyvanse, Ritalin/LA/ER, Metadate ER/CD, Concerta and Daytrana.
By convention, psychiatrists refer to this phenomenon as Bipolar III or hypomania induced by medication which predicts and unmasks the development of spontaneous mood swings of genuine Bipolar to come for the patient later in life.
Nevertheless, the psychiatrist tried a series of atypical antipsychotics, including Zyprexa, Geodon, Seroquel as well as two FDA approved drugs for treatment of irritability in Autistic Disorder, Abilify and Risperdal.
The Applicant tapered and discontinued the aforementioned medications in the patient. The Applicant then titrated up KAPVAY® as follows: 0.1 mg at bedtime for a week; next, 0.1 mg twice a day for a week; next, 0.1 mg in the morning and 0.2 mg at night for one week; and finally 0.2 mg twice a day going forward.

[2] = tested on: patient having P.R.I.C.E. Syndrome; test: Example 2: case report of a patient with P.R.I.C.E. Syndrome, earlier medications then INTUNIV (plus inositol); type: in vivo, human; settings: Example 2 patient; for effect on the patient's symptoms (particularism, concentration) / side effects: medications given before the P.R.I.C.E. diagnosis
Description: They had been taking Zoloft and Abilify, as well as Melatonin to help them sleep.
The Applicant tapered and discontinued the patient's then-current medications. The Applicant then titrated up INTUNIV® 1 mg at bedtime, increasing by an additional 1 mg at bedtime every week as necessary to achieve symptom control, up to a maximum of 4 mg.

[3] = tested on: patients having P.R.I.C.E. Syndrome; test: Applicant's general clinical findings in patients who meet all criteria for P.R.I.C.E. Syndrome; type: in vivo, human; settings: patients meeting all P.R.I.C.E. criteria, Applicant's practice
Excerpt: Both KAPVAY® and INTUNIV® are FDA-approved for treatment of ADHD. […] A psychiatrist would be led away from prescribing KAPVAY® or INTUNIV® to patients with suspected Bipolar Disorder since it is known that alpha-2 adrenergic agonists could potentially exacerbate emotional lability found in such patients.
Extended release clonidine is capable of stable therapeutic effects by maintaining a constant serum level for an extended period in order to avoid the “peak and trough” side effects of transient sedation at peak serum levels and rebound exacerbation of symptoms at trough levels. Embodiments of extended release compositions of clonidine are described in U.S. Pat. No. 5,869,100, which is incorporated herein by reference in its entirety.

[4] = tested on: patients with Bipolar Disorder; settings: post-marketing reports; cited from earlier work
[5] = cited from earlier work
[6] = Example 1 patient, medications tried before the P.R.I.C.E. diagnosis

| Compound | side effects ([1]; human, in vivo) | effect on the patient's symptoms (agitation, impulsivity, concentration, rigidity) [1, 6] | also measured |
| --- | --- | --- | --- |
| O=C1Cc2cc(CCN3CCN(c4nsc5ccccc45)CC3)c(Cl)cc2N1 [Geodon] | severe sedation, impaired their concentration further and caused an increase in both appetite and weight | – | – |
| OCCOCCN1CCN(C2=Nc3ccccc3Sc3ccccc32)CC1 [Seroquel] | severe sedation, impaired their concentration further and caused an increase in both appetite and weight | – | – |
| CCCC(CCC)C(=O)O [Depakote] | – | ineffective; also recorded: not helping their agitation | – |
| Nc1nnc(-c2cccc(Cl)c2Cl)c(N)n1 [Lamictal] | – | ineffective; also recorded: not helping their agitation | – |
| O[C@H]1[C@H](O)[C@@H](O)[C@H](O)[C@@H](O)[C@H]1O [Inositol, inositol] | – | – | effect on "getting stuck" on certain topics in conversation ([2]; Inositol 9000 mg twice a day added to INTUNIV): therapeutically beneficial; effectiveness in treating P.R.I.C.E. Syndrome [3]: effective in addressing residual particularism |
| O=C1CCc2ccc(OCCCCN3CCN(c4cccc(Cl)c4Cl)CC3)cc2N1 [Abilify] | severe sedation, impaired their concentration further and caused an increase in both appetite and weight | – | effect on the patient's symptoms (particularism, concentration) [2]: without improvement in concentration; side effects [2]: sedation and tremor |
| NC(=O)N1c2ccccc2C=Cc2ccccc21 [Tegretol] | worsening the patient's concentration | ineffective | – |
| CNCCC(Oc1ccc(C(F)(F)F)cc1)c1ccccc1 (stereo not shown) [Prozac] | – | – | effect on the patient's symptoms (particularism, concentration) [2]: did not alleviate the particularism; side effects [2]: become “wild” and unable to sleep |
| Cc1nc2n(c(=O)c1CCN1CCC(c3noc4cc(F)ccc34)CC1)CCCC2 [Risperdal] | severe sedation, impaired their concentration further and caused an increase in both appetite and weight | – | side effects [2]: sedation and weight gain |
| N=C(N)NC(=O)Cc1c(Cl)cccc1Cl [Tenex, N-(Aminoiminomethyl)-2,6-dichlorobenzeneacetamide; N-amidino-2-(2,6 dichlorophenyl) acetamide] | – | not effective | manic symptoms in Bipolar Disorder [4]: development or exacerbation of manic symptoms; side effects [1, 6]: too sedative |
| CN[C@H]1CC[C@@H](c2ccc(Cl)c(Cl)c2)c2ccccc21 [Zoloft] | – | – | effect on the patient's symptoms (particularism, concentration) [2]: did not alleviate the particularism; side effects [2]: become “wild” and unable to sleep |
| Clc1cccc(Cl)c1N=C1NCCN1 [short-acting clonidine, 2,6-dichloro-N-2-imidazolidinylidene benzeneamine] | too sedative | not effective | biological half-life ([5]; after oral administration of short-acting clonidine): four to six; primary side-effect ([5]; short-acting clonidine, about an hour after the given dose): sedation; absorption from the gastrointestinal tract ([5]; short-acting oral formulation): almost completely absorbed; effectiveness in treating P.R.I.C.E. Syndrome [3]: ineffective |
| CC(C)NCC(O)COc1cccc2ccccc12 (stereo not shown) [propranolol] | too sedative | not effective | – |
| CNCC[C@@H](Oc1ccccc1C)c1ccccc1 [Strattera] | – | increased agitation and impulsivity | – |
| NC(=O)C[S+]([O-])C(c1ccccc1)c1ccccc1 (stereo not shown) [Provigil] | – | increased agitation and impulsivity | – |
| Cc1cc2c(s1)Nc1ccccc1N=C2N1CCN(C)CC1 [Zyprexa] | severe sedation, impaired their concentration further and caused an increase in both appetite and weight | – | – |
| NC(=O)N1c2ccccc2CC(=O)c2ccccc21 [Trileptal] | worsening the patient's concentration | ineffective | – |
| CN(C)CCC[C@@]1(c2ccc(F)cc2)OCc2cc(C#N)ccc21 [Lexapro] | – | worsening their agitation without helping their rigidity | – |
| [Li] [Lithium] | – | – | side effects [1, 6]: worsening the patient's concentration |
| NC(=O)C[S@@+]([O-])C(c1ccccc1)c1ccccc1 [Nuvigil] | – | increased agitation and impulsivity | – |
| CC1(C)O[C@@H]2[C@@H](CO[C@@]3(COS(N)(=O)=O)OC(C)(C)O[C@@H]23)O1 [Topamax] | worsening the patient's concentration | ineffective | – |
| CC(NC(C)(C)C)C(=O)c1cccc(Cl)c1 (stereo not shown) [Wellbutrin] | – | increased agitation and impulsivity | – |
| COC(=O)C(c1ccccc1)C1CCCCN1 (stereo not shown) [Daytrana] | – | worsen their agitation without helping their concentration | – |
